test system: SARS-CoV-2; test: Antiviral activity against replicon RNA harboring SARS-CoV-2 infected in human Huh-7 cells assessed as inhibition of viral replication; format: functional, organism-based; settings: Severe acute respiratory syndrome coronavirus 2, Huh-7

Point of comparison: CC(C)(C)[C@H](NC(=O)C(F)(F)F)C(=O)N1C[C@H]2[C@@H]([C@H]1C(=O)N[C@H](C#N)C[C@@H]1CCNC1=O)C2(C)C [NIRMATRELVIR], EC50 0.023 µM. Against it:
- COC(=O)/C=C/[C@H](C[C@@H]1CCNC1=O)NC(=O)[C@@H]1[C@@H]2[C@H](CN1C(=O)[C@@H](NC(=O)C(F)(F)F)C(C)(C)C)C2(C)C — 2-fold higher, 0.045 µM
- CC(C)(C)[C@H](NC(=O)C(F)(F)F)C(=O)N1C[C@H]2[C@@H]([C@H]1C(=O)N[C@H](/C=C/C(N)=O)C[C@@H]1CCNC1=O)C2(C)C — higher, > 5 µM
